Laboratory results as given in PubChem BioAssay (NCI).
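Briefly, cells in 96-well plates were exposed to five compound concentrations for 48 h, and endpoints were estimated by linear interpolation. GI50 marks 50% less growth. TGI marks complete inhibition of growth.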

Key:
Experiment in all cases: DTP human tumour cell line panel, 48 h
[1] = test system: IGROV1 ovarian
[2] = test system: DU-145 prostate
[3] = test system: MCF7 breast
[4] = test system: OVCAR-5 ovarian
[5] = test system: SN12C renal
[6] = test system: K-562 leukemia
[7] = test system: HT29 colon
[8] = test system: NCI-H460 lung
[9] = test system: PC-3 prostate
[10] = test system: SK-MEL-28 melanoma
[11] = test system: HCC-2998 colon
[12] = test system: OVCAR-4 ovarian
[13] = test system: A498 renal
[14] = test system: EKVX NSCLC
[15] = test system: M14 melanoma
[16] = test system: CAKI-1 renal
[17] = test system: NCI-H226 lung
[18] = test system: CCRF-CEM leukemia
[19] = test system: SF-268 CNS
[20] = test system: ACHN renal
[21] = test system: NCI-H23 lung
[22] = test system: SK-MEL-2 melanoma
[23] = test system: HL-60(TB) leukemia
[24] = test system: HCT-15 colon
[25] = test system: SNB-75 CNS
[26] = test system: 786-0 renal
[27] = test system: COLO 205 colon
[28] = test system: SNB-19 CNS
[29] = test system: BT-549 breast
[30] = test system: HS 578T breast
[31] = test system: SW-620 colon
[32] = test system: SK-OV-3 ovarian
[33] = test system: MDA-MB-231 breast
[34] = test system: T-47D breast
[35] = test system: UO-31 renal
[36] = test system: U251 CNS
[37] = test system: RXF 393 renal
[38] = test system: NCI/ADR-RES ovarian
[39] = test system: TK-10 renal
[40] = test system: OVCAR-3 ovarian
[41] = test system: SR leukemia
[42] = test system: MDA-MB-435
[43] = test system: HOP-92 NSCLC
[44] = test system: SK-MEL-5 melanoma
[45] = test system: UACC-62 melanoma
[46] = test system: RPMI-8226 leukemia
[47] = test system: HCT-116 colon
[48] = test system: SF-539 CNS
[49] = test system: A549 NSCLC
[50] = test system: MOLT-4 leukemia
[51] = test system: HOP-62 NSCLC
[52] = test system: SF-295 CNS
[53] = test system: LOX IMVI melanoma
[54] = test system: NCI-H522 lung

**Q.** With Clc1nc(Cl)c2ncn(CC#CCn3cnc4c(Cl)nc(Cl)nc43)c2n1 as the compound, how does the GI50 [1] read?
**A.** 1.54 µM

**Q.** What about the TGI [1] of the same compound?
**A.** 3.37 µM

**Q.** And the GI50 [2]?
**A.** 1.78 µM

**Q.** And the TGI [2]?
**A.** 3.23 µM

**Q.** And the GI50 [3]?
**A.** 2.18 µM

**Q.** What about the TGI [3] of the same compound?
**A.** 5.96 µM

**Q.** And the GI50 [4]?
**A.** 10.5 µM

**Q.** And the TGI [4]?
**A.** 25.6 µM

**Q.** What about the GI50 [5] of the same compound?
**A.** 2.66 µM

**Q.** What about the TGI [5] of the same compound?
**A.** 6.5 µM

**Q.** What about the GI50 [6] of the same compound?
**A.** 2.39 µM

**Q.** What about the TGI [6] of the same compound?
**A.** 6.24 µM

**Q.** What about the GI50 [7] of the same compound?
**A.** 1.89 µM

**Q.** And the TGI [7]?
**A.** 3.69 µM

**Q.** And the GI50 [8]?
**A.** 3.41 µM

**Q.** What about the TGI [8] of the same compound?
**A.** 12.4 µM

**Q.** And the GI50 [9]?
**A.** 3.61 µM

**Q.** And the TGI [9]?
**A.** 11.1 µM

**Q.** And the GI50 [10]?
**A.** 1.82 µM

**Q.** What about the TGI [10] of the same compound?
**A.** 3.39 µM

**Q.** What about the GI50 [11] of the same compound?
**A.** 2.08 µM

**Q.** And the TGI [11]?
**A.** 4.05 µM

**Q.** What about the GI50 [12] of the same compound?
**A.** 1.89 µM

**Q.** And the TGI [12]?
**A.** 3.36 µM

**Q.** And the GI50 [13]?
**A.** 10.6 µM

**Q.** What about the TGI [13] of the same compound?
**A.** 23 µM

**Q.** And the GI50 [14]?
**A.** 2.6 µM

**Q.** And the TGI [14]?
**A.** 6.2 µM

**Q.** And the GI50 [15]?
**A.** 2.6 µM

**Q.** And the TGI [15]?
**A.** 5.62 µM

**Q.** And the GI50 [16]?
**A.** 2.05 µM

**Q.** What about the TGI [16] of the same compound?
**A.** 3.91 µM

**Q.** What about the GI50 [17] of the same compound?
**A.** 3.18 µM

**Q.** What about the TGI [17] of the same compound?
**A.** 7.94 µM

**Q.** What about the GI50 [18] of the same compound?
**A.** 1.9 µM

**Q.** What about the TGI [18] of the same compound?
**A.** 3.89 µM

**Q.** What about the GI50 [19] of the same compound?
**A.** 1.89 µM

**Q.** And the TGI [19]?
**A.** 3.76 µM

**Q.** And the GI50 [20]?
**A.** 1.9 µM

**Q.** What about the TGI [20] of the same compound?
**A.** 3.32 µM

**Q.** What about the GI50 [21] of the same compound?
**A.** 3.05 µM

**Q.** What about the TGI [21] of the same compound?
**A.** 8.52 µM

**Q.** What about the GI50 [22] of the same compound?
**A.** 2.53 µM

**Q.** What about the TGI [22] of the same compound?
**A.** 5.55 µM

**Q.** And the GI50 [23]?
**A.** 2.41 µM

**Q.** And the TGI [23]?
**A.** > 100 µM

**Q.** What about the GI50 [24] of the same compound?
**A.** 1.99 µM

**Q.** What about the TGI [24] of the same compound?
**A.** 4.06 µM

**Q.** And the GI50 [25]?
**A.** 2.87 µM

**Q.** And the TGI [25]?
**A.** 7.76 µM

**Q.** And the GI50 [26]?
**A.** 3.46 µM

**Q.** What about the TGI [26] of the same compound?
**A.** 11.4 µM

**Q.** What about the GI50 [27] of the same compound?
**A.** 1.7 µM

**Q.** And the TGI [27]?
**A.** 3.36 µM

**Q.** And the GI50 [28]?
**A.** 2.01 µM

**Q.** And the TGI [28]?
**A.** 4.25 µM

**Q.** What about the GI50 [29] of the same compound?
**A.** 3.3 µM

**Q.** And the TGI [29]?
**A.** 11.3 µM

**Q.** What about the GI50 [30] of the same compound?
**A.** 2.49 µM

**Q.** And the TGI [30]?
**A.** 6.79 µM

**Q.** And the GI50 [31]?
**A.** 1.84 µM

**Q.** And the TGI [31]?
**A.** 3.46 µM

**Q.** And the GI50 [32]?
**A.** 10.5 µM

**Q.** And the TGI [32]?
**A.** 22.5 µM

**Q.** What about the GI50 [33] of the same compound?
**A.** 2.42 µM

**Q.** What about the TGI [33] of the same compound?
**A.** 4.93 µM

**Q.** What about the GI50 [34] of the same compound?
**A.** 1.85 µM

**Q.** What about the TGI [34] of the same compound?
**A.** 4.13 µM

**Q.** And the GI50 [35]?
**A.** 1.67 µM

**Q.** And the TGI [35]?
**A.** 3.31 µM

**Q.** What about the GI50 [36] of the same compound?
**A.** 2.28 µM

**Q.** And the TGI [36]?
**A.** 4.75 µM

**Q.** What about the GI50 [37] of the same compound?
**A.** 1.35 µM

**Q.** And the TGI [37]?
**A.** 2.98 µM

**Q.** And the GI50 [38]?
**A.** 3.73 µM

**Q.** What about the TGI [38] of the same compound?
**A.** 24.1 µM

**Q.** What about the GI50 [39] of the same compound?
**A.** 5.51 µM

**Q.** What about the TGI [39] of the same compound?
**A.** 17.8 µM

**Q.** What about the GI50 [40] of the same compound?
**A.** 2.06 µM

**Q.** What about the TGI [40] of the same compound?
**A.** 3.71 µM

**Q.** What about the GI50 [41] of the same compound?
**A.** 0.38 µM

**Q.** And the TGI [41]?
**A.** 2.19 µM

**Q.** And the GI50 [42]?
**A.** 3.25 µM

**Q.** And the TGI [42]?
**A.** 8.56 µM

**Q.** What about the GI50 [43] of the same compound?
**A.** 2.21 µM

**Q.** And the TGI [43]?
**A.** 4.02 µM

**Q.** And the GI50 [44]?
**A.** 11.1 µM

**Q.** And the TGI [44]?
**A.** 23.3 µM

**Q.** What about the GI50 [45] of the same compound?
**A.** 1.96 µM

**Q.** And the TGI [45]?
**A.** 3.66 µM

**Q.** And the GI50 [46]?
**A.** 2.09 µM

**Q.** What about the TGI [46] of the same compound?
**A.** 5.07 µM

**Q.** What about the GI50 [47] of the same compound?
**A.** 1.78 µM

**Q.** What about the TGI [47] of the same compound?
**A.** 3.42 µM

**Q.** What about the GI50 [48] of the same compound?
**A.** 2.56 µM

**Q.** And the TGI [48]?
**A.** 6.86 µM

**Q.** And the GI50 [49]?
**A.** 2.49 µM

**Q.** What about the TGI [49] of the same compound?
**A.** 9.32 µM

**Q.** What about the GI50 [50] of the same compound?
**A.** 0.554 µM

**Q.** And the TGI [50]?
**A.** 2.48 µM

**Q.** And the GI50 [51]?
**A.** 1.9 µM

**Q.** What about the TGI [51] of the same compound?
**A.** 3.89 µM

**Q.** What about the GI50 [52] of the same compound?
**A.** 6.69 µM

**Q.** What about the TGI [52] of the same compound?
**A.** 20.4 µM

**Q.** And the GI50 [53]?
**A.** 1.86 µM

**Q.** And the TGI [53]?
**A.** 3.41 µM

**Q.** What about the GI50 [54] of the same compound?
**A.** 1.56 µM

**Q.** What about the TGI [54] of the same compound?
**A.** 3.51 µM
